Measurements as given in patent publication US7052865B1, “Identification of genes having a role in the presentation of diabetic nephropathy” (University College Dublin, National University of Ireland, …, priority 1999, dated 2006).

Key:
[1] = test system: CTGF; test: CTGF mRNA levels in mesangial cells by Northern Blot, Phosphor Imager quantification; assay type: cell-based, human
Text: CTGF, is a 38 kD cysteine-rich secreted peptide known to modulate ECM production in some extrarenal cell types. In Example 1, SSH analysis identified a cDNA fragment of 250 bp which was identical to bases 814-1061 of the human CTGF cDNA. Induction of CTGF mRNA expression in primary human mesangial cells cultured in high glucose was investigated by Northern Blotting as shown in FIG. 1.
A 2.4 kb band was detected following hybridisation with the CTGF probe. All of the values were normalised to GAPDH levels and the results are representative of three independent experiments.
To assess the role of TGF-β1 as a stimulus for CTGF expression in response to high glucose, cells were incubated in either 5 mM glucose or 30 mM glucose plus 1 μl/ml anti-TGF-β1 antibody for seven days with three changes of medium. Cells were serum starved for 24 hr in RPMI 1640 and 0.5% FBS. 10 ng/ml TGF-β1 Calbiochem) or 10 ng/ml TGF-β1 preadsorbed with 1 μg/ml neutralising anti-TGF-β1 polyclonal antibody were subsequently added for 24 hr.
The role of PKC on CTGF expression in response to high glucose was investigated by culturing the mesangial cells in either 5 mM, 30 mM glucose or 30 mM glucose and the PKC inhibitor GF 102903X.
FIG. 7 is an autoradiograph of CTGF mRNA levels analysed by Northern Blot and depicts the results obtained when mesangial cells were exposed to TGF-β1 (10 ng/ml) for 24 hr in the presence (lane 3) and absence (lane 2) of anti-TGF-β1 neutralising antibody (1 μg/ml). Cells cultured in RPMI 1640 and 0.5% FBS for 24 hr served as control (lane 1). A 2.4 kb band was detected following hybridisation to the CTGF probe. The blot was stripped and reprobed with GAPDH. The relative amount of CTGF mRNA as estimated by Phosphor Imager quantification (FIG. 8). Values were normalised to GAPDH levels and the results are representative of two independent experiments.
(§1) FIG. 9 is an autoradiograph of CTGF mRNA levels analysed by Northern Blot and depicts the results obtained when mesangial cells were exposed to 5 mM glucose (lane 1), 30 mM glucose (lane 2) and 30 mM glucose in the presence of anti-TGF-β1 neutralising antibodies (1 μg/ml) (lane 3) for seven days. A 2.4 kb band was detected following hybridisation to the CTGF probe. The blot was stripped and probed with GAPDH. The relative amount of CTGF MRNA as estimated by Phosphor Imager quantification (FIG. 10). […]
as §1, with “11” for “9”, “PKC inhibitor GF102903X (10 μM)” for “the presence of anti-TGF-β1 neutralising antibodies (1 μg/ml)”, “four” for “seven”, “The blot was stripped and probed with GAPDH.” left out, “rnRNA” for “MRNA”, “12).” for “10).”

[2] = test system: gremlin; test: Gremlin mRNA levels in mesangial cells by Northern Blot; assay type: cell-based; details: human recombinant TGF-β1 10 ng/ml, 24 h, serum restricted mesangial cells
Method: A) Primary cultures of human mesangial cells were propagated as described in Example 1, except that the medium was supplemented with 5% FBS. Treatment of cultures with glucose was carried out as described in Example 1. […]
Northern Blot analysis as described further below was performed on RNA extracted from mesangial cells grown in either 5 mM (‘normal’) or 30 mM (‘high’) glucose using the ORF of gremlin and IHG-2 probes. Both probes detected a 2-fold increase in gene expression under high glucose conditions as depicted in FIG. 16.
Northern Blots were performed using formaldehyde denaturation according to standard protocols and quantitated using a phosphorimager (Biorad). PCR products used to generate the probes for northern analysis were amplified using primers for the open reading frame (ORF) of gremlin (sense: […] (SEQ ID NO: 17); antisense […] (SEQ ID NO: 18)), and for IHG-2 (sense: […] (SEQ ID NO 19); antisense: […] (SEQ ID NO: 20)). Fibronectin and GAPDH probes were generated as described in Example 2
As indicated above, both high ambient glucose concentrations and cyclic mechanical strain provoke TGF-β1 production by mesangial cells in vitro and TGF-β1 appears to be a major stimulus for mesangial matrix accumulation in diabetic glomeruli in vivo. […]

[3] = test system: primary human mesangial cells; test: Northern Blot of genes differentially induced in mesangial cells cultured in high glucose or mannitol (Table 1); assay type: cell-based; set-up: key to Differential Expression of IHG-1 mRNA: *: detected in mesangial cells cultured in 5 mM glucose+25 mM mannitol and 30 mM glucose, but not in 5 mM glucose; details: 25 mM mannitol + 5 mM glucose, relative to 5 mM glucose
Method: Primary human mesangial cells were cultured as previously reported (Brady, H. R., et al. (1992) Kidney Int. 42, 480-487 and Denton, M. D., et al. (1991) Am. J. Physiol. 261, F1071-F1079). Cells (passage 7-11) were maintained in medium (Clonetics) containing either 5 mM or 30 mM D-glucose for 7 days. Culture medium was replenished three times during this period to maintain glucose levels in the desired range. To control for the effects of hyperosmolarity, mesangial cells were cultured in media containing 5 mM glucose supplemented with 25 mM mannitol. […] Northern Blots performed using formaldehyde denaturation according to standard protocols and quantitated using a Phosphor Imager (Biorad) confirmed differential expression of fifteen of the sixteen subcloned fragments as indicated in Table 1. ^c refers to the differential expression of each gene based on Northern Blot analysis of primary human mesangial cells cultured under indicated conditions relative to expression in cells cultured in 5 mM glucose. Values were obtained by Phosphor-Imaging and were normalised by comparison with glyceraldehyde-3-phosphate dehydrogenase (GAPDH) (*, detected in mesangial cells cultured in 5 mM glucose+25 mM mannitol and 30 mM glucose, but not in 5 mM glucose, fold expression is degree of expression relative to that found in 5 mM glucose). Within a diabetic milieu, high glucose levels may perturb cellular function through glucose-specific actions or by increasing the osmolarity of extracellular fluids. The role of hyperosmolarity as a mediator of gene induction by high glucose was assessed by comparing mRNA levels, as determined by Northern Blot, in cells cultured in either 30 mM glucose or in 5 mM glucose supplemented with 25 mM mannitol. […] High glucose and mannitol-induced hyperosmolarity afforded equivalent induction of the other products.

[4] = test system: mesangial cells; test: Effect of rhCTGF on mesangial cell matrix production (RT-PCR); assay type: cell-based, human; details: rhCTGF 8 ng/ml, 24 hr, serum starved mesangial cells
Method: To investigate the direct effects of CTGF up-regulation on matrix production, in particular the effect on collagens I and IV and fibronectin, mesangial cells were incubated with recombinant CTGF protein.
Mesangial cells were serum starved for 24 hr in RPMI 1640 medium supplemented with 0.5 % fetal bovine serum (FBS) and then exposed to rhCTGF (8 ng/ml) (a generous gift from Dr. Gary Grotendorst) for 24 hr (Kreisberg, J. I. and Ayo, S. H. (1993). Kidney Int. 43, 109-113). Total RNA was extracted and chromosomal DNA was removed using DNase 1 (Gibco-BRL). Equal amounts of cDNA were subsequently amplified by PCR using specific primers for GAPDH (Gen/EMBL accession no. AJ005371, sense: […] (SEQ ID NO: 7); antisense: […] (SEQ ID NO: 8), Collagen I (Gen/EMBL accession no. X55525, sense: […] (SEQ ID NO: 9); antisense: […] (SEQ ID NO: 10)), Collagen IV (Gen/EMBL accession no. M11315, sense: […] (SEQ ID NO: 11); antisense: […] (SEQ ID NO: 12) and fibronectin (Gen/EMBL accession no. X0276 1, sense: CGAAATCACAGCCAGTAG (SEQ ID NO. 13), antisense: ATCACATCCACACGGTAG (SEQ ID NO: 14)).
FIG. 3 depicts ethidium-stained panels of a 2% (w/v) agarose gel containing 10 μl of each PCR reaction after electrophoresis.

TGF-β1: human recombinant transforming growth factor β1 (Calbiochem)
induction of CTGF mRNA levels ([1]; TGF-β1 10 ng/ml, 24 hr, serum starved mesangial cells): potent inducer | gremlin mRNA levels [2]: augmented

CN(C)CCCn1cc(C2=C(c3c[nH]c4ccccc34)C(=O)NC2=O)c2ccccc21 [GF102903X]
effect on high glucose-induced CTGF expression ([1]; 30 mM glucose, four days, inhibitor 10 μM): partial inhibition | effect on TGF-β1-induced CTGF expression ([1]; TGF-β1 10 ng/ml, 24 hr, antibody 1 μg/ml, GF102903X data not shown): without effect

OC[C@@H](O)[C@@H](O)[C@H](O)[C@H](O)CO [mannitol]
Differential Expression of IHG-1 mRNA [3]: * | Differential Expression of ARP3 mRNA ([3]; normalised to GAPDH): 1.0-fold | Differential Expression of CAP mRNA ([3]; normalised to GAPDH): 1.7-fold | Differential Expression of CTGF mRNA ([3]; normalised to GAPDH): 1.5-fold | Differential Expression of Caldesmon mRNA ([3]; normalised to GAPDH): 2.8-fold | Differential Expression of Fibronectin mRNA ([3]; normalised to GAPDH): 1.5-fold | Differential Expression of IHG-2 mRNA ([3]; normalised to GAPDH): 2.0-fold | Differential Expression of MRLC mRNA ([3]; normalised to GAPDH): 1.6-fold | Differential Expression of PAI-1 mRNA (2.0 kb) ([3]; normalised to GAPDH): 1.0-fold | Differential Expression of PAI-1 mRNA (3.0 kb) ([3]; normalised to GAPDH): 2.0-fold | Differential Expression of Profilin mRNA ([3]; normalised to GAPDH): 2.3-fold | Differential Expression of RBM3 mRNA ([3]; normalised to GAPDH): 1.4-fold | Differential Expression of T-plastin mRNA ([3]; normalised to GAPDH): 1.8-fold | Differential Expression of TCTP mRNA ([3]; normalised to GAPDH): 2.5-fold | Differential Expression of Thrombospondin mRNA ([3]; normalised to GAPDH): 8.0-fold | Differential Expression of Ubiquitin mRNA ([3]; normalised to GAPDH): 1.7-fold | mesangial cell CTGF expression compared with high glucose ([1]; 25 mM mannitol + 5 mM glucose versus 30 mM glucose, in vitro): less mesangial cell CTGF expression in vitro than high glucose

B1: rhCTGF: recombinant human connective tissue growth factor protein (protein, UniProt P29279 27-349, looked up)
CCN family member 2: QNCSGPCRCPDEPAPRCPAGVSLVLDGCGCCRVCAKQLGELCTERDPCDPHKGLFCHFGSPANRKIGVCTAKDGAPCIFGGTVYRSGESFQSSCKYQCTCLDGAVGCMPLCSMDVRLPSPDCPFPRRVKLPGKCCEEWVCDEPKDQTVVGPALAAYRLEDTFGPDPTMIRANCLVQTTEWSACSKTCGMGISTRVTNDNASCRLEKQSRLCMVRPCEADLEENIKKGKKCIRTPKISKPIKFELSGCTSMKTYRAKFCGVCTDGRCCTPHRTTTLPVEFKCPDGEVMKKNMMFIKTCACHYNCPGDNDIFESLYYRKMYGDMA
mesangial cell collagens I and IV and fibronectin mRNA (RT-PCR) [4]: up-regulates
